What follows are compounds tested against T1, human Cot/Tpl2 kinase (Homo sapiens, UniProt P41279) (assay: Tpl2/Cot kinase assay: GST-MEK1 phosphorylation detected by ELISA (DELFIA Eu)). Conditions: 0.4 nM Tpl2, 35 nM GST-MEK1, 50 uM ATP, 1 h at 30° C.
T1 construct: human Cot/Tpl2 kinase construct encoding residues 30-398; 6His (N); made in house; host or cells: Sf9 insect cells, baculovirus system (BD Biosciences)
T1 sequence (P41279 30-398): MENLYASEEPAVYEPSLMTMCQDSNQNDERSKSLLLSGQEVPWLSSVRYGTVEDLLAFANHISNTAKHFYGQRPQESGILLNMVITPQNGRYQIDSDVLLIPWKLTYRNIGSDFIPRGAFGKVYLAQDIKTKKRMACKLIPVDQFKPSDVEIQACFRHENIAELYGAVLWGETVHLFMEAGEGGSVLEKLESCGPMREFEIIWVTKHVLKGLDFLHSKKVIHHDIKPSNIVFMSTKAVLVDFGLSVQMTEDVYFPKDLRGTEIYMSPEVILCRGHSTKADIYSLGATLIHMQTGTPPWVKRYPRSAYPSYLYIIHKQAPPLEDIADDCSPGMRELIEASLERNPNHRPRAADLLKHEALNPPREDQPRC
Assay type: biochemical
How it was run: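 Substrate phosphorylation (GST-MEK1 Ser217/221) quantified by DELFIA europium ELISA, yielding IC50 values. Reaction: 1 h at 30° C, pH 7.2 MOPS buffer, 50 uM ATP, 35 nM GST-MEK1, 0.4 nM monomeric His-Tpl2 purified from Sf9 cells, compounds at 1% final DMSO; stopped with EDTA.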
For `COCCOc1ccc(Br)cc1CNc1ccc2ncc(C#N)c(Nc3ccc(F)c(Cl)c3)c2c1` [Example 48, 6-[5-Bromo-2-(2-methoxy-ethoxy)-benzylamino]-4-(3-chloro-4-fluoro-phenylamino)-quinoline-3-carbonitrile], the IC50 was 1500 nM.
For `N#Cc1cnc2ccc(NCc3nccs3)cc2c1Nc1ccc(F)c(Cl)c1` [Example 8, 4-(3-Chloro-4-fluoro-phenylamino)-6-[(thiazol-2-ylmethyl)-amino]-quinoline-3-carbonitrile], the IC50 was 31 nM.
In the case of `CC(C)(C)OC(=O)N1CCC(NC(=O)Cn2ccnc2CNc2ccc3ncc(C#N)c(Nc4ccc(F)c(Cl)c4)c3c2)CC1` [Example 142, tert-butyl 4-(2-(2-((4-(3-chloro-4-fluorophenylamino)-3-cyanoquinolin-6-ylamino)methyl)-1H-imidazol-1-yl)acetamido)piperidine-1-carboxylate], the IC50 is reported as 1800 nM.
Compound `COc1ccc(Cn2cc(CNc3cc(Br)c4ncc(C#N)c(Nc5ccc(F)c(Cl)c5)c4c3)nn2)cc1` [Example 289] has an IC50 of 203 nM.
`CN(C)CCN1CCN(c2cc3ncc(C#N)c(Nc4ccc(F)c(Cl)c4)c3cc2NCc2cnc[nH]2)CC1` [Example 164, 6-((1H-imidazol-5-yl)methylamino)-4-(3-chloro-4-fluorophenylamino)-7-(4-(2-(dimethylamino)ethyl)piperazin-1-yl)quinoline-3-carbonitrile] gave an IC50 greater than 40000 nM.
In the case of `CS(=O)(=O)c1cccc(CNc2ccc3ncc(C#N)c(Nc4ccc(F)c(Cl)c4)c3c2)c1` [Example 167, 6-(3-(methylsulfonyl)benzylamino)-4-(3-chloro-4-fluorophenylamino)quinoline-3-carbonitrile], the IC50 is reported as 28 nM.
For `N#Cc1ccccc1CNc1cc(C(F)(F)F)c2ncc(C#N)c(Nc3ccc(F)c(Cl)c3)c2c1` [Example 233, 4-[(3-chloro-4-fluorophenyl)amino]-6-[(2-cyanobenzyl)amino]-8-(trifluoromethyl)quinoline-3-carbonitrile], the IC50 was greater than 40000 nM.
Work on `N#Cc1cnc2c(C(F)(F)F)cc(NCc3cccc[n+]3[O-])cc2c1Nc1ccc(F)c(Cl)c1` [Example 257, 4-[(3-chloro-4-fluorophenyl)amino]-6-{[(1-oxidopyridin-2-yl)methyl]amino}-8-(trifluoromethyl)quinoline-3-carbonitrile] yielded an IC50 of 370 nM.
In the case of `N#Cc1cnc2c(Cl)cc(NCc3ccnc4ccccc34)cc2c1Nc1ccc(F)c(Cl)c1` [Example 278, 8-Chloro-4-[(3-chloro-4-fluorophenyl)amino]-6-[(quinolin-4-ylmethyl)amino]quinoline-3-carbonitrile], the IC50 is reported as 460 nM.
In the case of `CN(C)C(=O)c1cc(NCc2ccccn2)cc2c(Nc3ccc(F)c(Cl)c3)c(C#N)cnc12` [Example 91, 4-(3-chloro-4-fluorophenylamino)-3-cyano-N,N-dimethyl-6-(pyridin-2-ylmethylamino)quinoline-8-carboxamide], the IC50 is reported as 360 nM.
With `N#Cc1cnc2c(Cl)cc(NCc3cn(CCN4CCOC4=O)nn3)cc2c1Nc1ccc(F)c(Cl)c1` [Example 222, 8-chloro-4-(3-chloro-4-fluorophenylamino)-6-((1-(2-(2-oxooxazolidin-3-yl)ethyl)-1H-1,2,3-triazol-4-yl)methylamino)quinoline-3-carbonitrile] the IC50 was 10 nM.
For `C/C=C/c1cc(NCc2cccnc2)cc2c(Nc3ccc(F)c(Cl)c3)c(C#N)cnc12` [Example 109, (E)-4-(3-chloro-4-fluorophenylamino)-8-(prop-1-enyl)-6-(pyridin-3-ylmethylamino)quinoline-3-carbonitrile], the IC50 was 2200 nM.
Compound `N#Cc1cnc2c(C(F)(F)F)cc(NCc3cnc(S(=O)(=O)c4ccccc4)s3)cc2c1Nc1ccc(F)c(Cl)c1` [Example 242, 4-[(3-chloro-4-fluorophenyl)amino]-6-({[2-(phenylsulfonyl)-1,3-thiazol-5-yl]methyl}amino)-8-(trifluoromethyl)quinoline-3-carbonitrile] has an IC50 greater than 40000 nM.
`N#Cc1cnc2ccc(NCc3ccco3)cc2c1Nc1ccc(F)c(Cl)c1` [Example 3, 4-(3-Chloro-4-fluoro-phenylamino)-6-[(furan-2-ylmethyl)-amino]-quinoline-3-carbonitrile] was tested, and the IC50 was 240 nM.
In the case of `Cc1noc(Nc2c(C#N)cnc3ccc(NCc4cnc[nH]4)cc23)c1C` [Example 262, 4-[(3,4-dimethylisoxazol-5-yl)amino]-6-[(1H-imidazol-5-ylmethyl)amino]quinoline-3-carbonitrile], the IC50 is reported as 2200 nM.
`N#Cc1cnc2ccc(NCc3ccccc3F)cc2c1Nc1ccc(F)c(Cl)c1` [Example 144, 6-(2-fluorobenzylamino)-4-(3-chloro-4-fluorophenylamino)quinoline-3-carbonitrile] showed an IC50 of 920 nM.
`N#Cc1cnc2ccc(NCc3cccc(Oc4ccccc4)c3)cc2c1Nc1ccc(F)c(Cl)c1` [Example 150, 6-(3-phenoxybenzylamino)-4-(3-chloro-4-fluorophenylamino)quinoline-3-carbonitrile] gave an IC50 of 6400 nM.
For `N#Cc1cnc2ccc(NCc3c[nH]c4c(F)c(F)c(F)c(F)c34)cc2c1Nc1ccc(F)c(Cl)c1` [Example 49, 4-(3-Chloro-4-fluoro-phenylamino)-6-[(4,5,6,7-tetrafluoro-1H-indol-3-ylmethyl)-amino]-quinoline-3-carbonitrile], the IC50 was greater than 40000 nM.
For `Cn1cc(CNc2cc(Br)c3ncc(C#N)c(Nc4ccc(F)c(Cl)c4)c3c2)nn1` [Example 221, 8-bromo-4-(3-chloro-4-fluorophenylamino)-6-((1-methyl-1H-1,2,3-triazol-4-yl)methylamino)quinoline-3-carbonitrile], the IC50 was 28 nM.

Same assay, conditions: Table 2; Tpl2/Cot kinase, GST-MEK1 substrate, 50 uM ATP
In the case of `Cn1nnc(CNc2cc(Cl)c3ncc(C#N)c(Nc4ccc(F)c(Cl)c4)c3c2)n1` [Example 466], the IC50 is reported as 230 nM.
In the case of `CC(C)n1cnc(CNc2cc(Br)c3ncc(C#N)c(Nc4ccc(F)c(Cl)c4)c3c2)c1` [Example 633], the IC50 is reported as greater than 3000 nM.
For `CN1CCN(C(=O)CNc2cc(Cl)c3ncc(C#N)c(Nc4ccc(F)c(Cl)c4)c3c2)CC1` [Example 468], the IC50 was 360 nM.
`N#Cc1cnc2ccc(NCc3ccc[n+]([O-])c3)cc2c1Nc1ccc(F)c(Cl)c1` [Example 384] was tested, and the IC50 was 130 nM.
With `N#Cc1cnc2c(Cl)cc(NCC(=O)c3ccccc3)cc2c1Nc1ccc(F)c(Cl)c1` [Example 447] the IC50 was 870 nM.
Compound `N#Cc1cnc2c(Cl)cc(NCc3cn(CC4CCCNC4)nn3)cc2c1Nc1ccc(F)c(Cl)c1` (stereo not drawn) [Example 546] has an IC50 of 48 nM.
`CC(c1ccccc1)n1cc(CNc2cc(Cl)c3ncc(C#N)c(Nc4ccc(F)c(Cl)c4)c3c2)nn1` (stereo not drawn) [Example 586] showed an IC50 of 96 nM.
Compound `N#Cc1cnc2c(Br)cc(NCc3cn(CCOCCOCCO)nn3)cc2c1Nc1ccc(F)c(Cl)c1` [Example 573] has an IC50 of 140 nM.
Work on `N#Cc1cnc2c(Br)cc(NCc3cnc4ccccn34)cc2c1Nc1ccc(F)c(Cl)c1` [Example 526] yielded an IC50 of 280 nM.
For `N#Cc1cnc2ccc(NCc3ccc(S(N)(=O)=O)cc3)cc2c1NC1CCCC1` [Example 411], the IC50 was 7300 nM.
In the case of `CCN1CC(CCn2cc(CNc3cc(Cl)c4ncc(C#N)c(Nc5ccc(F)c(Cl)c5)c4c3)nn2)N(c2ccccc2)C1=S` (stereo not drawn) [Example 617], the IC50 is reported as 130 nM.
With `N#Cc1cnc2c(Br)cc(NCc3cnc4cnccn34)cc2c1Nc1ccc(F)c(Cl)c1` [Example 528] the IC50 was 110 nM.
`C[S+]([O-])Cn1cc(CNc2cc(Br)c3ncc(C#N)c(Nc4ccc(F)c(Cl)c4)c3c2)nn1` (stereo not drawn) [Example 532] showed an IC50 of 120 nM.
`N#Cc1cnc2ccc(NCc3ccccn3)cc2c1NC1CCCCC1` [Example 360] showed an IC50 of 210 nM.
In the case of `N#Cc1cnc2c(Cl)cc(NCc3cn(-c4cc[n+]([O-])cc4)nn3)cc2c1Nc1ccc(F)c(Cl)c1` [Example 576], the IC50 is reported as 16 nM.
`N#Cc1cnc2c(I)cc(NCc3cnc[nH]3)cc2c1Nc1ccc(F)c(Cl)c1` [Example 452] showed an IC50 of 51 nM.

Same assay, conditions: Tpl2/Cot kinase, GST-MEK1 substrate, 50 uM ATP
`N#Cc1cnc2c(Br)cc(NCc3cn(CCCN4CCCCC4)nn3)cc2c1Nc1ccc(F)c(Cl)c1` [Example 711] was tested, and the IC50 was 3.4 nM.
With `CS(=O)(=O)CCn1cc(CNc2cc(Br)c3ncc(C#N)c(Nc4ccc(F)c(Cl)c4)c3c2)nn1` [Example 694] the IC50 was 91 nM.
`N#Cc1cnc2c(Br)cc(NCc3cn(COCc4ccccc4)nn3)cc2c1Nc1ccc(F)c(Cl)c1` [Example 805] showed an IC50 greater than 3000 nM.
`N#Cc1cnc2c(Br)cc(NCc3cn(Cc4ccccn4)nn3)cc2c1Nc1ccc(F)c(Cl)c1` [Example 753] showed an IC50 of 33 nM.
In the case of `CC(c1ccccc1)n1cc(CNc2cc(Cl)c3ncc(C#N)c(Nc4ccc(F)c(Cl)c4)c3c2)nn1` (stereo not drawn) [Example 761], the IC50 is reported as 96 nM.
For `CN(C)CCNC(=O)Cn1cc(CNc2cc(Cl)c3ncc(C#N)c(Nc4ccc(F)c(Cl)c4)c3c2)nn1` [Example 818], the IC50 was 6.8 nM.
In the case of `COC(=O)c1cc(Cl)c2ncc(C#N)c(Nc3ccc(F)c(Cl)c3)c2c1` [Example 760], the IC50 is reported as greater than 3000 nM.
For `CC(C)NC(=O)NCCCn1cc(CNc2cc(Cl)c3ncc(C#N)c(Nc4ccc(F)c(Cl)c4)c3c2)nn1` [Example 908], the IC50 was 1 nM.

Same assay, conditions: Tpl2/Cot kinase, GST-MEK1 substrate, 50 uM ATP, 1 h at 30° C.; Table 2
`N#Cc1cnc2c(Cl)cc(NCc3cn(CCC4CCN(C5CCC5)CC4)nn3)cc2c1Nc1ccc(F)c(Cl)c1` [Example 937] showed an IC50 of 150 nM.
`CNC1CCC(n2cc(CNc3cc(Cl)c4ncc(C#N)c(Nc5ccc(F)c(Cl)c5)c4c3)nn2)CC1` (stereo not drawn) [Example 1036] showed an IC50 of 40 nM.
Compound `N#Cc1cnc2c(Cl)cc(NCC3CCCN(C(=O)CNCc4cccnc4)C3)cc2c1Nc1ccc(F)c(Cl)c1` (stereo not drawn) [Example 921] has an IC50 of 540 nM.
`CC(C)NC1CCC(n2cc(CNc3cc(Cl)c4ncc(C#N)c(Nc5ccc(F)c(Cl)c5)c4c3)nn2)CC1` (stereo not drawn) [Example 1037] was tested, and the IC50 was 20 nM.
`N#Cc1cnc2c(Cl)cc(NCc3cn(C4CCN(CC5CC5)CC4)nn3)cc2c1Nc1ccc(F)c(Cl)c1` [Example 1027] showed an IC50 of 7.9 nM.

Source: patent publication US20060264460A1 (Wyeth, priority 2005, published 2006)
